From ChEMBL document CHEMBL3046405, “Knockdown of several components of cytochrome P450 enzyme systems by RNA interference enhances the susceptibility of Helicoverpa armigera to fenvalerate” (2012)

Legend:
Type in all cases: functional
Helicoverpa armigera [1] = experiment: Potency index, ratio of LD50 for fenvalerate-resistant Helicoverpa armigera HDFR third-instar larvae injected with TE buffer to LD50 for fenvalerate-resistant Helicoverpa armigera HDFR third-instar larvae injected with dsCYP6B7-313-1 dsRNA plus dsCyt-b5-4 dsRNA after 24 hr
Helicoverpa armigera [2] = experiment: Potency index, ratio of LD50 for fenvalerate-resistant Helicoverpa armigera HDFR third-instar larvae injected with TE buffer to LD50 for fenvalerate-resistant Helicoverpa armigera HDFR third-instar larvae injected with dsCYP6B7-313-1 dsRNA plus dsCPR-403-1 after 24 hr
Helicoverpa armigera [3] = experiment: Potency index, ratio of LD50 for fenvalerate-resistant Helicoverpa armigera HDFR third-instar larvae injected with TE buffer to LD50 for fenvalerate-resistant Helicoverpa armigera HDFR third-instar larvae injected with dsCYP6B7-313-1 dsRNA plus dsCPR-403-1 dsRNA and dsCyt-b5-4 dsRNA after 12 hr
Helicoverpa armigera [4] = experiment: Potency index, ratio of LD50 for fenvalerate-resistant Helicoverpa armigera HDFR third-instar larvae injected with TE buffer to LD50 for fenvalerate-resistant Helicoverpa armigera HDFR third-instar larvae injected with dsCYP6B7-313-1 dsRNA plus dsCyt-b5-4 dsRNA after 12 hr
Helicoverpa armigera [5] = experiment: Potency index, ratio of LD50 for fenvalerate-resistant Helicoverpa armigera HDFR third-instar larvae injected with TE buffer to LD50 for fenvalerate-resistant Helicoverpa armigera HDFR third-instar larvae injected with dsCYP6B7-313-1 dsRNA plus dsCPR-403-1 after 12 hr
Helicoverpa armigera [6] = experiment: Potency index, ratio of LD50 for fenvalerate-resistant Helicoverpa armigera HDFR third-instar larvae injected with TE buffer to LD50 for fenvalerate-resistant Helicoverpa armigera HDFR third-instar larvae injected with dsCYP6B7-313-1 dsRNA after 12 hr
Helicoverpa armigera [7] = experiment: Insecticidal activity against fenvalerate-resistant Helicoverpa armigera HDFR third-instar larvae injected with dsCYP6B7-313-1 dsRNA plus dsCPR-403-1 dsRNA and dsCyt-b5-4 dsRNA assessed as compound level per larva causing mortality after 48 hr
Helicoverpa armigera [8] = experiment: Insecticidal activity against fenvalerate-resistant Helicoverpa armigera HDFR third-instar larvae injected with dsCYP6B7-313-1 dsRNA plus dsCyt-b5-4 dsRNA assessed as compound level per larva causing mortality after 48 hr
Helicoverpa armigera [9] = experiment: Insecticidal activity against fenvalerate-resistant Helicoverpa armigera HDFR third-instar larvae injected with dsCYP6B7-313-1 dsRNA plus dsCPR-403-1 dsRNA assessed as compound level per larva causing mortality after 48 hr
Helicoverpa armigera [10] = experiment: Insecticidal activity against fenvalerate-resistant Helicoverpa armigera HDFR third-instar larvae injected with dsCYP6B7-313-1 dsRNA assessed as compound level per larva causing mortality after 48 hr
Helicoverpa armigera [11] = experiment: Insecticidal activity against fenvalerate-resistant Helicoverpa armigera HDFR third-instar larvae injected with TE buffer assessed as compound level per larva causing mortality after 48 hr
Helicoverpa armigera [12] = experiment: Insecticidal activity against fenvalerate-resistant Helicoverpa armigera HDFR third-instar larvae without dsRNA injection assessed as compound level per larva causing mortality after 48 hr
Helicoverpa armigera [13] = experiment: Insecticidal activity against fenvalerate-resistant Helicoverpa armigera HDFR third-instar larvae injected with dsCYP6B7-313-1 dsRNA plus dsCPR-403-1 dsRNA and dsCyt-b5-4 dsRNA assessed as compound level per larva causing mortality after 36 hr
Helicoverpa armigera [14] = experiment: Insecticidal activity against fenvalerate-resistant Helicoverpa armigera HDFR third-instar larvae injected with dsCYP6B7-313-1 dsRNA plus dsCyt-b5-4 dsRNA assessed as compound level per larva causing mortality after 36 hr
Helicoverpa armigera [15] = experiment: Insecticidal activity against fenvalerate-resistant Helicoverpa armigera HDFR third-instar larvae injected with dsCYP6B7-313-1 dsRNA plus dsCPR-403-1 dsRNA assessed as compound level per larva causing mortality after 36 hr
Helicoverpa armigera [16] = experiment: Insecticidal activity against fenvalerate-resistant Helicoverpa armigera HDFR third-instar larvae injected with dsCYP6B7-313-1 dsRNA assessed as compound level per larva causing mortality after 36 hr
Helicoverpa armigera [17] = experiment: Insecticidal activity against fenvalerate-resistant Helicoverpa armigera HDFR third-instar larvae injected with TE buffer assessed as compound level per larva causing mortality after 36 hr
Helicoverpa armigera [18] = experiment: Insecticidal activity against fenvalerate-resistant Helicoverpa armigera HDFR third-instar larvae without dsRNA injection assessed as compound level per larva causing mortality after 36 hr
Helicoverpa armigera [19] = experiment: Insecticidal activity against fenvalerate-resistant Helicoverpa armigera HDFR third-instar larvae injected with dsCYP6B7-313-1 dsRNA plus dsCPR-403-1 dsRNA and dsCyt-b5-4 dsRNA assessed as compound level per larva causing mortality after 24 hr
Helicoverpa armigera [20] = experiment: Insecticidal activity against fenvalerate-resistant Helicoverpa armigera HDFR third-instar larvae injected with dsCYP6B7-313-1 dsRNA plus dsCyt-b5-4 dsRNA assessed as compound level per larva causing mortality after 24 hr
Helicoverpa armigera [21] = experiment: Insecticidal activity against fenvalerate-resistant Helicoverpa armigera HDFR third-instar larvae injected with dsCYP6B7-313-1 dsRNA plus dsCPR-403-1 dsRNA assessed as compound level per larva causing mortality after 24 hr
Helicoverpa armigera [22] = experiment: Insecticidal activity against fenvalerate-resistant Helicoverpa armigera HDFR third-instar larvae injected with dsCYP6B7-313-1 dsRNA assessed as compound level per larva causing mortality after 24 hr
Helicoverpa armigera [23] = experiment: Insecticidal activity against fenvalerate-resistant Helicoverpa armigera HDFR third-instar larvae injected with TE buffer assessed as compound level per larva causing mortality after 24 hr
Helicoverpa armigera [24] = experiment: Insecticidal activity against fenvalerate-resistant Helicoverpa armigera HDFR third-instar larvae without dsRNA injection assessed as compound level per larva causing mortality after 24 hr

CC(C)C(C(=O)OC(C#N)c1cccc(Oc2ccccc2)c1)c1ccc(Cl)cc1 (centres undefined) [FENVALERATE]
Ratio (Helicoverpa armigera [1]): 2.4 | Ratio (Helicoverpa armigera [2]): 2.9 | Ratio (Helicoverpa armigera [3]): 3.7 | Ratio (Helicoverpa armigera [4]): 2.5 | Ratio (Helicoverpa armigera [5]): 2.8 | Ratio (Helicoverpa armigera [6]): 2 | LD50 (Helicoverpa armigera [7]): 6.7 µg | LD50 (Helicoverpa armigera [8]): 6.9 µg | LD50 (Helicoverpa armigera [9]): 8.9 µg | LD50 (Helicoverpa armigera [10]): 10.7 µg | LD50 (Helicoverpa armigera [11]): 21.5 µg | LD50 (Helicoverpa armigera [12]): 23.1 µg | LD50 (Helicoverpa armigera [13]): 8.6 µg | LD50 (Helicoverpa armigera [14]): 9.9 µg | LD50 (Helicoverpa armigera [15]): 8.9 µg | LD50 (Helicoverpa armigera [16]): 16.5 µg | LD50 (Helicoverpa armigera [17]): 25.6 µg | LD50 (Helicoverpa armigera [18]): 26.1 µg | LD50 (Helicoverpa armigera [19]): 10.2 µg | LD50 (Helicoverpa armigera [20]): 14.5 µg | LD50 (Helicoverpa armigera [21]): 12.3 µg | LD50 (Helicoverpa armigera [22]): 19.7 µg | LD50 (Helicoverpa armigera [23]): 35.2 µg | LD50 (Helicoverpa armigera [24]): 35.7 µg
